Measured values as given in patent US20100061969A1, “DIETARY SUPPLEMENT, ANTI-FATIGUE AGENT OR PHYSICAL ENDURANCE ENHANCER, FUNCTIONAL FOOD, OR COSMETIC” (ASAHI KASEI PHARMA CORPORATION, priority 2006, published 2010).

Key:
male Slc:ddY mice = experiment: Test of anti-fatigue effect and physical endurance-enhancing effect (forced swimming with weight); type: in vivo, mouse; settings: weight 8.5% of body weight
Text: The following method can determine whether the functional food, or anti-fatigue agent and/or physical endurance enhancer, which contains the composition of the present invention, has an anti-fatigue effect or not and physical endurance-enhancing effect or not. That is, the effect of the present invention can be determined as follows: after preliminarily feeding, attaching a weight, which is equivalent to 8.5% of the body weight of each mouse, to each mouse in a group subjected to forced oral administration with an anti-fatigue agent containing the composition of the present invention (administered group) and to each mouse in a group administered with no agent (non-administration group) three weeks after administration; forcing the mice to swim; measuring a time until the head (nose) of each mouse completely sinks in water for 7 seconds due to distress; and comparing the results between the administered group and the non-administration group.
Six-week-old male Slc:ddY mice (Charles river laboratories Japan, Inc.) were preliminarily fed for 7 days and divided into four groups each including 10 mice.
The groups include: the group administered with water (control); the group administered with oxidized coenzyme Q10 at 50 mg/kg/day (Comparative Example 1, group administered with only CoQ10); the group administered with phosphatidylinositol at 100 mg/kg/day (Comparative Example 2, group administered with only phosphatidylinositol); and the group administered with oxidized coenzyme Q10 at 50 mg/kg/day and phosphatidylinositol at 100 mg/kg/day at the same time (Test Example, group administered with CoQ10+phosphatidylinositol), and forced oral administration was performed under the above-mentioned administration conditions five days a week. Three weeks after the administration, a weight was attached to each mouse (the weight is 8.5% of the body weight of the mouse), and the mouse was forced to swim. Then, a time until the head (nose) of the mouse completely sank for 7 seconds due to distress was measured. Note that, the oxidized coenzyme Q10 and phosphatidylinositol in Test Example were simultaneously administered.

[1] = Coenzyme Q10 concentration in blood after forced oral administration (HPLC of plasma); type: in vivo, rat; settings: rats; for Average value of total CoQ10 concentration in blood: group = 1 week pre-administration
Procedure: Seven-week-old male Slc:SD rats were preliminarily fed for 7 days, and forced oral administration (repeated oral administration) was performed for 4 rats with phosphatidylinositol at 100 mg/kg/day for 1 week. Then, forced oral administration was performed with phosphatidylinositol at 100 mg/kg/day and oxidized coenzyme Q10 at 100 mg/kg/day at the same time (PI-administered group). 0, 2, 4, and 6 hours after the forced oral administration with both phosphatidylinositol and coenzyme Q10, the whole blood was collected from the postcaval vein using heparinized injection needles and syringes under diethyl ether anesthesia. Collected blood was immediately centrifuged (4° C., 3,000 rpm, 10 minutes) to separate plasma. The separated plasma samples were used for an analysis of coenzyme Q10 by HPLC. As comparative examples, the above-mentioned procedures were performed for the group which was subjected to forced oral administration (repeated oral administration) with soybean lecithin at 500 mg/kg/day (100 mg/kg/day in terms of phosphatidylinositol) instead of phosphatidylinositol for 1 week and then to forced oral administration with both phosphatidylinositol at 100 mg/kg/day and oxidized coenzyme Q10 at 100 mg/kg/day at the same time (soybean lecithin-administered group), and the group which was subjected to forced oral administration with both phosphatidylinositol at 100 mg/kg/day and oxidized coenzyme Q10 at 100 mg/kg/day simultaneously without preliminary administration of phosphatidylinositol (PI non-administration group).

[2] = Week 3, forced oral administration five days a week

Average value of total CoQ10 concentration in blood ([1]; 0 hr after oral PI 100 mg/kg + oxidized CoQ10 100 mg/kg) | Average value of total CoQ10 concentration in blood ([1]; 2 hr after oral PI 100 mg/kg + oxidized CoQ10 100 mg/kg) | Average value of total CoQ10 concentration in blood ([1]; 4 hr after oral PI 100 mg/kg + oxidized CoQ10 100 mg/kg) | Average value of total CoQ10 concentration in blood ([1]; 6 hr after oral PI 100 mg/kg + oxidized CoQ10 100 mg/kg) | coenzyme Q10 concentrations in blood compared with the PI non-administration group ([1]; 1 week pre-administration) | Compound | Swimming time (average) (male Slc:ddY mice; Week 0, 10 mice per group) | Swimming time (average) (male Slc:ddY mice; [2])
70 nM | 1,983 nM | 1,927 nM | 686 nM | higher | phosphatidylinositol | 212 s | 333 s
– | – | – | – | – | COC1=C(OC)C(=O)C(C/C=C(\C)CC/C=C(\C)CC/C=C(\C)CC/C=C(\C)CC/C=C(\C)CC/C=C(\C)CC/C=C(\C)CC/C=C(\C)CC/C=C(\C)CCC=C(C)C)=C(C)C1=O [CoQ10, oxidized coenzyme Q10, reference compound] | 214 s | 358 s
